This assay concerns the target POLRMT (Homo sapiens (Human), UniProt O00411). As to the kind of experiment: homogeneous TR-FRET assay of POLRMT inhibition (mitochondrial transcription, 407 bp RNA product). It is filed as biochemical. The settings on record: 7.5 nM POLRMT, 15 nM TFB2M, 30 nM TFAM, 0.5 nM DNA template, 500 μM NTPs, 37° C., 60 minutes, * = aggregation of data sets, read-out: IC50 values for isoquinolinone compounds. How it is done:
The inhibitory activity of the compounds of the present invention against POLRMT were determined by assays based on Bergbrede, T., et al., “An adaptable high-throughput technology enabling the identification of specific transcription modulators,” SLAC Discov., 22, 378-386 (2017).
The ability of some compounds of the present invention to inhibit POLRMT were determined in a homogeneous TR-FRET Assay using high-throughput screening in a 384-well plate format. This method is used to monitor the activity of mitochondrial transcription through measurement of its product, a 407 bp long RNA transcript. Detection of the product is facilitated by hybridization of two DNA-oligonucleotide probes to specific and adjacent sequences within the RNA product sequence. Upon annealing of the probes, two fluorophores are coupled directly to an acceptor nucleotide probe (ATTO647, 5′), or introduced via a coupled streptavidin with a biotinylated donor nucleotide probe (Europium cryptate) that is brought into sufficient proximity to serve as a fluorescence-donor-acceptor pair. Thus, a FRET signal at 665 nm is generated upon excitation at 340 nm.
Proteins used as transcription factors (POLRMT: NP_005026.3, TFAM: NP_003192.1, TFB2M: NP_071761.1) are diluted from their stocks to working concentrations of 1 μM, 20 μM and 4 μM respectively, in a dilution buffer containing 20 mM Tris-HCl (pH 8.0), 200 mM NaCl, 10% (v/v) glycerol, 1 mM Dithiothreitol (DTT), 0.5 mM EDTA.
DNA template is a pUC18 plasmid with the mitochondrial light strand promotor sequence (1-477) cloned between HindIII and BamHI sites. The DNA template is restriction linearized proximal to the promotor 3′-end (pUC-LSP).
The reaction mixture (10 uL) containing 7.5 nM POLRMT, 15 nM of TFB2M, 30 nM of TFAM, 0.5 nM of DNA template and 500 μM nucleotide triphosphate mix (NTPs) in a reaction buffer (containing 10 mM Tris-HCl (pH 7.5), 10 mM MgCl2, 40 mM NaCl, 10 mM DTT, 0.005% (w/v) Tween-20, 160 units/ml Rnase inhibitor and 0.1 mg/mL BSA) are dispensed to compounds in microplates, using a Thermo Multidrop® dispenser, and incubated at 37° C. in a VWR INCU-Line incubator for 60 minutes after mixing. No nucleotide triphosphate mix is added to negative control samples. Microplates with compounds to be tested in the assay are prepared from 10 mM compound stocks in 100% DMSO, equal amounts of DMSO without any compound are added to positive control and negative control samples.
During the incubation, a mix of the detection reagents is prepared in a buffer such that the enzymatic reaction is terminated due to chelating of Mg-ions and increased ionic strength, containing 50 mM Tris-HCl (pH 7.5), 700 mM NaCl, 20 mM EDTA, and 0.01% (w/v) Tween-20. Europium-streptavidin is pre-incubated with a 200-fold molar excess of a random sequence oligonucleotide to block unspecific binding of oligo, for two hours at ambient temperature in the dark. Afterwards, the blocked Europium-streptavidin is kept on ice until use.
At the end of the enzymatic reaction time, 5 μL detection oligo mix in the detection buffer is added, and assay plates are mixed and kept at ambient temperature for one hour, protected from light. The concentration of the Acceptor nucleotide oligo (e.g., ATTO647N-5′-[…]-3′ (SEQ ID NO: 1)) and Donor nucleotide oligo (e.g., bio-5′-AACACATCTCT(-bio)GCCAAACCCCA-bio-3′ (SEQ ID NO: 2)) in each assay well is 1 nM, and 3 nM, respectively.
After incubation with oligo mix, 5 μL of pre-blocked Europium-streptavidin reagent is dispensed to each assay well, assay plates are again mixed and kept at ambient temperature for one hour, protected from light.
The generated signal is measured with BMG Pherastar microtiter plate reader with a TRF light unit, using excitation at 340 nm, an integration time of 200 μs, and a delay time of 100 μs, before detection at 620 nm and 665 nm. The ratio of donor- and acceptor-fluorescence is used as a measure of the generated transcript product (i.e. enzymatic activity).
Background: In TR-FRET formats the signal depends on donor and acceptor labels being close together.

Broadly, the IC50 is the concentration needed to halve the response being measured.

POLRMT, sequence (O00411 42-1230): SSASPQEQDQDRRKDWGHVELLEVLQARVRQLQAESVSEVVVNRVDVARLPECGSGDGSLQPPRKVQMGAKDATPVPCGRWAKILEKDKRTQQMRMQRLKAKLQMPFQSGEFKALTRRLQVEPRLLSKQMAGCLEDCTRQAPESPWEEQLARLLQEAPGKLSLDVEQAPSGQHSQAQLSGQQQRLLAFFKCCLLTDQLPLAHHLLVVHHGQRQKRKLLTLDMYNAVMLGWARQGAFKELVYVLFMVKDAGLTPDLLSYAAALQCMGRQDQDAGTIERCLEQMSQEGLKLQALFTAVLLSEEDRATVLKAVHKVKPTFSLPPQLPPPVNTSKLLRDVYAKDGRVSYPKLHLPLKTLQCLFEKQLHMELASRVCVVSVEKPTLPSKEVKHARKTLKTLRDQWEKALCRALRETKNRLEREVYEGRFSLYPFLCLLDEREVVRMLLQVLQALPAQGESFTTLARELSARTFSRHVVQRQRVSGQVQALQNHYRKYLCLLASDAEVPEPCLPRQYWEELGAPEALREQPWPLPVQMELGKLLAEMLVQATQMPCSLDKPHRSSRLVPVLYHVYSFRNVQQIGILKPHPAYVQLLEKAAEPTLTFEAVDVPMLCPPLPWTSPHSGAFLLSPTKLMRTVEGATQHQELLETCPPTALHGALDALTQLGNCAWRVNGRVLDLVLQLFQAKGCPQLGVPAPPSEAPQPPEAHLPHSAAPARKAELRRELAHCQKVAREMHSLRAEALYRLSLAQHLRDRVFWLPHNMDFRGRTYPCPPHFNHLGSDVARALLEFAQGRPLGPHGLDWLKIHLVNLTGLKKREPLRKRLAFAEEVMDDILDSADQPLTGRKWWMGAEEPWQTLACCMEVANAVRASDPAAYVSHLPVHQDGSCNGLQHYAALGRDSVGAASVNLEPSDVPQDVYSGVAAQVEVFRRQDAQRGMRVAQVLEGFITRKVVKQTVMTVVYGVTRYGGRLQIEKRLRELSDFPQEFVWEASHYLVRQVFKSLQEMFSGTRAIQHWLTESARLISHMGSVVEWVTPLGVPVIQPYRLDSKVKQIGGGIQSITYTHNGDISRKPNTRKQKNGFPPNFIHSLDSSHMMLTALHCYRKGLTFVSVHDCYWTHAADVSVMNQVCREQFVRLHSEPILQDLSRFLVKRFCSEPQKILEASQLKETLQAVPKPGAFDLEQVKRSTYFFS

`Cc1ccccc1-c1c[nH]c(=O)c2cc(O[C@H](C)C(=O)N3CC(C(=O)O)CC(F)(F)C3)ccc12` (single isomer, unassigned) [Example 1]: the IC50 stood at 60 nM.

As for `Cc1ccccc1-c1c[nH]c(=O)c2cc(O[C@H](C)C(=O)N3CC(C(=O)O)CC(F)(F)C3)ccc12` (single isomer, unassigned) [Example 2], the IC50 is 50 nM.

In the case of `C[C@@H](C(=O)N1CCC[C@H](C(=O)O)C1)N(C)c1ccc2c(-c3ccc(F)cc3Cl)c[nH]c(=O)c2c1` (single isomer, unassigned) [Example 4], the IC50 was found to be 100 nM.

On to `C[C@@H](C(=O)N1CCC[C@H](C(=O)O)C1)N(C)c1ccc2c(-c3ccc(F)cc3Cl)c[nH]c(=O)c2c1` (single isomer, unassigned) [Example 5], for which the IC50 turned out to be 8000 nM.

As for `Cc1ccccc1-c1c[nH]c(=O)c2cc(N(C)[C@@H](C)C(=O)N3CCC[C@H](C(=O)O)C3)ccc12` (single isomer, unassigned) [Example 7], the 50% inhibitory concentration (IC50) is 200 nM.

Regarding `Cc1ccccc1-c1c[nH]c(=O)c2cc(N(C)[C@@H](C)C(=O)N3CCC[C@H](C(=O)O)C3)ccc12` (single isomer, unassigned) [Example 8], the IC50 worked out at 93000 nM.

Regarding `C[C@@H](Oc1ccc2c(-c3ccc(F)cc3Cl)c[nH]c(=O)c2c1)C(=O)N1CC(C(N)=O)CC(F)(F)C1` (single isomer, unassigned) [Example 9], the concentration for half-maximal inhibition (IC50) is 200 nM.

For the compound `Cc1ccccc1-c1c[nH]c(=O)c2cc(O[C@H](C)C(=O)N3CCCC(CC(=O)O)C3)ccc12` (single isomer, unassigned) [Example 12], the IC50 was found to be 60 nM.

`Cc1ccccc1-c1c[nH]c(=O)c2cc(O[C@H](C)C(=O)N3CCCC(CC(=O)O)C3)ccc12` (single isomer, unassigned) [Example 13]: the concentration for half-maximal inhibition (IC50) amounted to 70 nM.

Take `C[C@@H](Oc1ccc2c(-c3ccc(F)cc3Cl)c[nH]c(=O)c2c1)C(=O)N1CCCC(C2(C(=O)O)CC2)C1` (single isomer, unassigned) [Example 36]: the IC50 was 80 nM.

For the compound `C[C@@H](Oc1ccc2c(-c3ccc(F)cc3Cl)c[nH]c(=O)c2c1)C(=O)N1CCCC(C2(C(=O)O)CC2)C1` (single isomer, unassigned) [Example 37], the IC50 came to 50 nM.

In the case of `Cc1ccccc1-c1c[nH]c(=O)c2cc(O[C@H](C)C(=O)N3CCCC(C4(C(N)=O)CC4)C3)ccc12` (single isomer, unassigned) [Example 40], the IC50 stood at 20 nM.

As for `Cc1ccccc1-c1c[nH]c(=O)c2cc(O[C@H](C)C(=O)N3CCCC(C4(C(N)=O)CC4)C3)ccc12` (single isomer, unassigned) [Example 41], the IC50 worked out at 40 nM.

`Cc1ccccc1-c1c[nH]c(=O)c2cc(O[C@H](C)C(=O)N3CCCC(C(C)(C)C(=O)O)C3)ccc12` (single isomer, unassigned) [Example 43]: the IC50 stood at 20 nM.

On to `Cc1ccccc1-c1c[nH]c(=O)c2cc(O[C@H](C)C(=O)N3CCCC(C(C)(C)C(=O)O)C3)ccc12` (single isomer, unassigned) [Example 44], for which the IC50 worked out at 60 nM.

Consider `Cc1ccccc1-c1c[nH]c(=O)c2cc(O[C@H](C)C(=O)N3CCCC(C(C)(C)C(N)=O)C3)ccc12` (single isomer, unassigned) [Example 45], for which the IC50 was 30 nM.

Consider `Cc1ccccc1-c1c[nH]c(=O)c2cc(O[C@H](C)C(=O)N3CCCC(C(C)(C)C(N)=O)C3)ccc12` (single isomer, unassigned) [Example 46], for which the IC50 was 40 nM.

Take `C[C@@H](Oc1ccc2c(-c3ccc(F)cc3Cl)c[nH]c(=O)c2c1)C(=O)N1CCCC(C(C)(C)C(=O)O)C1` (single isomer, unassigned) [Example 50]: the IC50 was 60 nM.

For the compound `C[C@@H](Oc1ccc2c(-c3ccc(F)cc3Cl)c[nH]c(=O)c2c1)C(=O)N1CCCC(C(C)(C)C(=O)O)C1` (single isomer, unassigned) [Example 51], the IC50 was determined as 300 nM.

As for `CCC1(C(=O)O)CCCN(C(=O)[C@@H](C)Oc2ccc3c(-c4ccccc4C)c[nH]c(=O)c3c2)C1` (single isomer, unassigned) [Example 52], the IC50 was determined as 20 nM.

`CCC1(C(=O)O)CCCN(C(=O)[C@@H](C)Oc2ccc3c(-c4ccccc4C)c[nH]c(=O)c3c2)C1` (single isomer, unassigned) [Example 53]: the IC50 was found to be 40 nM.

As to `CCCC1(C(=O)O)CCCN(C(=O)[C@@H](C)Oc2ccc3c(-c4ccccc4C)c[nH]c(=O)c3c2)C1` (single isomer, unassigned) [Example 66], the IC50 is 100 nM.

With `CCCC1(C(=O)O)CCCN(C(=O)[C@@H](C)Oc2ccc3c(-c4ccccc4C)c[nH]c(=O)c3c2)C1` (single isomer, unassigned) [Example 67], the IC50 amounted to 40 nM.

`Cc1ccccc1-c1c[nH]c(=O)c2cc(O[C@H](C)C(=O)N3CCCCC(N(C)C)C3)ccc12` (single isomer, unassigned) [Example 75]: the IC50 was found to be 3000 nM.

Regarding `Cc1ccccc1-c1c[nH]c(=O)c2cc(O[C@H](C)C(=O)N3CCCCC(N(C)C)C3)ccc12` (single isomer, unassigned) [Example 76], the IC50 is 2000 nM.

On to `CCOC(=O)CN(C)c1ccc2c(-c3ccccc3C)c[nH]c(=O)c2c1` [Example 3, ethyl N-methyl-N-(1-oxo-4-(o-tolyl)-1,2-dihydroisoquinolin-7-yl)glycinate], for which the IC50 stood at 300 nM.

In the case of `CC(=O)N1CC2CC1CN2C(=O)[C@@H](C)Oc1ccc2c(-c3ccc(F)cc3Cl)c[nH]c(=O)c2c1` (stereo partly drawn) [Example 6, 7-(((2R)-1-(5-acetyl-2,5-diazabicyclo[2.2.1]heptan-2-yl)-1-oxopropan-2-yl)oxy)-4-(2-chloro-4-fluorophenyl)isoquinolin-1(2H)-one], the IC50 turned out to be 1000 nM.

For the compound `COc1ccc2c(-c3ccccc3C(C)O)c[nH]c(=O)c2c1` (centres unmarked) [Example 11, 4-(2-(1-hydroxyethyl)phenyl)-7-methoxyisoquinolin-1(2H)-one], the IC50 is 62000 nM.

Take `C[C@@H](Oc1ccc2c(-c3ccc(F)cc3Cl)c[nH]c(=O)c2c1)C(=O)N1CCC(C)(C(=O)O)CC1` [Example 14, (R)-1-(2-((4-(2-chloro-4-fluorophenyl)-1-oxo-1,2-dihydroisoquinolin-7-yl)oxy)propanoyl)-4-methylpiperidine-4-carboxylic acid]: the IC50 stood at 100 nM.

For `Cc1ccccc1-c1c[nH]c(=O)c2cc(O[C@H](C)C(=O)N3CCC(C)(C(=O)O)CC3)ccc12` [Example 15, (R)-4-methyl-1-(2-((1-oxo-4-(o-tolyl)-1,2-dihydroisoquinolin-7-yl)oxy)propanoyl)piperidine-4-carboxylic acid], the half-maximal inhibitory concentration (IC50) was found to be 60 nM.

As to `Cc1ccccc1-c1c[nH]c(=O)c2cc(O[C@H](C)C(=O)N3CCN(C(N)=O)CC3)ccc12` [Example 16, (R)-4-(2-((1-oxo-4-(o-tolyl)-1,2-dihydroisoquinolin-7-yl)oxy)propanoyl)piperazine-1-carboxamide], the IC50 was found to be 100 nM.

`CC(=O)N(C)CCNC(=O)[C@@H](C)Oc1ccc2c(-c3ccccc3C)c[nH]c(=O)c2c1` [Example 17, (R)-N-(2-(N-methylacetamido)ethyl)-2-((1-oxo-4-(o-tolyl)-1,2-dihydroisoquinolin-7-yl)oxy)propanamide]: the IC50 stood at 2000 nM.
